Laboratory results reported in PMC12344774, “Ferrocenyl Quinoline-Benzimidazole Hybrids: A Multistage Strategy to Combat Drug-Resistant Malaria” (Inorganic Chemistry, 2025).
Where “and” joins values, the source holds several entries; their conditions need not be identical. Equal values may be shown once.

Key:
[1] = tested on: PfNF54; assay: In vitro ABS antiplasmodial activity, pLDH assay, drug-sensitive NF54; type: cell-based, Plasmodium falciparum; conditions: drug-sensitive NF54, ABS, pLDH, 48 h incubation; read-out: PfNF54 IC50 ± SEM
Excerpt: (§1) This side chain is also present in the well-known antiplasmodial agent, FQ.
(§2) Test samples were screened in technical duplicate or triplicate, for three or four biological replicates, for their in vitro blood stage antiplasmodial activity against both the drug-sensitive (NF54) and multidrug-resistant (K1) strains of . Continuous in vitro cultures of asexual erythrocyte stages of were maintained using a modified method of Trager and Jensen. A quantitative assessment of the in vitro antiplasmodial activity was determined via the parasite lactate dehydrogenase (pLDH) assay, using a modified method described by Makler and Hinrichs.
(§3) The test samples were prepared to a 20 mg/mL stock solution in 100% DMSO. Stock solutions were stored at −20 °C. Further dilutions were prepared in complete medium on the day of the experiment. […] Chloroquine diphosphate (CQDP) was used as the reference drug in all experiments. Test samples were tested at a starting concentration of either 100 μg/mL, 50 μg/mL, 10 μg/mL, or 1 μg/mL, which was then serially diluted 2-fold, in complete medium, to give 10 concentrations. The same dilution technique was used for all samples. […] The IC50 values were obtained from full dose–response curves, using a nonlinear dose–response curve fitting analysis, via GraphPad Prism v.5 software.

[2] = tested on: β-hematin formation; assay: NP-40 detergent-mediated β-hematin formation inhibition assay (cell-free); type: biochemical; conditions: NP-40, pH 4.8, 5 h, 37 °C, read-out: β-hematin formation inhibition IC50 ± SEM
Excerpt: The ability of a compound to inhibit Hz formation can be predicted using the biomimetic cell-free NP40 detergent-mediated β-hematin formation inhibition assay. , This assay mimics the conditions in the acidic DV of the parasite and relies on the binding of pyridine to uncrystallized free heme to detect the inhibition of β-hematin formation using UV–vis spectroscopy (with absorbance measured at 405 nm). , Consequently, the ability of the ferrocenyl quinoline-benzimidazole hybrids (C1–C5) to inhibit β-hematin (synthetic Hz) formation was investigated as a potential mechanism of antiplasmodial action.
The β-hematin formation inhibition assay was modified from the method reported by Sandlin et al. , Stock solutions of the respective test compounds were prepared to 10 mM, in 100% DMSO, with the exception of CQ (used in the salt form, CQDP), which was prepared in Milli-Q water. […] NP-40 is a detergent used to mediate the formation of β-hematin. The solution in column 12 was then serially diluted 2-fold, through to column 2, to give a total of 11 concentrations. Column 1 contained 0 μM of the test compound and thus served as a blank. […] A 178.8 μL aliquot of this hematin suspension was added to 20.0 mL of a 2 M acetate buffer (pH = 4.8) and 100 μL of this solution added to each well. The plates were then covered and incubated for 5 h, at 37 °C. The assay was analyzed using the pyridine-ferrochrome method developed by Ncokazi and Egan. A solution containing water/acetone/2 M HEPES buffer (pH 7.4)/pyridine, in a v/v ratio of 2/2/1/5, was prepared and 32 μL was added to all wells, followed by 60 μL of acetone. The absorbance values were then measured at 405 nm, the results plotted using GraphPad Prism (v5), and the IC50 values obtained using a sigmoidal dose–response curve fitting analysis.

[3] = tested on: PfK1; assay: microbe, parasite or virus in culture; type: cell-based, Plasmodium falciparum; conditions: MDR K1, ABS, pLDH, 48 h incubation; read-out: PfK1 IC50 ± SEM
Excerpt: as §1, §2, §3

[4] = tested on: Mature gametocytes (>95% stage V); assay: microbe, parasite or virus in culture; type: cell-based, Plasmodium falciparum; conditions: 48 h drug pressure; for % Inhibition, mature gametocytes: maximum inhibition at 10 μM
Description: (§4) Compounds are diluted 3-fold in at least a 9-point serial dilution series starting at 20 μM, with a nonlethal DMSO concentration of <0.1% maintained. Luciferase activity was determined in 30 μL parasite lysates by adding 30 μL luciferin substrate (Promega Luciferase Assay System) at room temperature and detection of resultant bioluminescence at an integration constant of 10 s with the GloMax-Multi + Detection System with Instinct Software. Methylene blue (5 μM) and the clinical antimalarial candidate MMV390048 (5 μM) were used as controls. IC50 values were determined in GraphPad Prism using a nonlinear regression fit with variable slope (4-parameter) on the dose–response data.
(§5) Assay quality parameters are evaluated for each assay, including Z′-factors (data quality compared to reproducibility using signal, noise, and background parameters; accepted metric >0.6), regression (accepted r 2 > 0.9); >80% viable parasites (top plateau); <20% killed parasites (bottom plateau), hill slope ∼1.

[5] = tested on: Immature gametocytes (>90% stage II/III); assay: microbe, parasite or virus in culture; type: cell-based, Plasmodium falciparum; conditions: 48 h drug pressure; for % Inhibition, immature gametocytes: maximum inhibition at 10 μM
Description: as §4, §5

[6] = Cyclic voltammetry of the ferrocene/ferrocenium couple; type: physicochemical; conditions: for Reversibility of the ferrocene/ferrocenium couple: DCM/0.1 M TBAP system
Description: It has been proposed that the oxidation of ferrocene (Fe(C5H5)2) to the ferrocenium cation (Fe(C5H5)2 ^+) is a reversible one-electron transfer process. […] This prompted the investigation into the electrochemical properties of the Fe(C5H5)2/Fe(C5H5)2 ^+ couple in complexes C1–C5, using cyclic voltammetry. FQ was used as the reference, as it is considered the benchmark for all newly developed ferrocenyl-based antiplasmodials.
Nuclear magnetic resonance (NMR) spectra were recorded on a Bruker XR600 MHz spectrometer (^1H at 599.95 MHz and ^13C{^1H} at 151.0 MHz), a Bruker […] (^1H at 400.22 MHz and ^13C{^1H} at 100.65 MHz), or a Varian Mercury 300 (^1H at 300.08 MHz) spectrometer. These were equipped with a Bruker Biospin GmbH casing and sample injector at 30 °C and tetramethylsilane (TMS) was used as the internal standard. Coupling constants are reported in Hz and chemical shifts are reported in ppm relative to residual solvent signals. Infrared (IR) spectroscopy was performed on a PerkinElmer Spectrum 100 FT-IR spectrometer, using attenuated total reflectance (ATR), with vibrations measured in units of cm^–1. Cyclic voltammetric measurements were carried out at ambient temperature under an inert argon atmosphere using a three-electrode system on a BASi Epsilon Eclipse potentiostat/galvanostat electrochemical workstation. The C-3 cell stand, equipped with a glassy carbon working electrode, Ag/AgCl (saturated NaCl) reference electrode, and a Pt wire auxiliary electrode were used to carry out electrochemical measurements. All experiments were carried out in anhydrous dichloromethane containing 0.10 M tetra-n-butylammonium perchlorate (TBAP) as the supporting electrolyte.

[7] = scan rate 100 mV/s, CH2Cl2, 0.1 M TBAP
[8] = vs Ag/AgCl, scan rate 100 mV/s, CH2Cl2, 0.1 M TBAP

## Cc1ccc2c(c1)nc(-[c-]1cccc1)n2CCCNc1ccnc2cc(Cl)ccc12.[Fe+2].c1cc[cH-]c1 [Complex C1, 7-chloro-N-(3-(5-(methyl)-2-ferrocenyl-1H-benzo[d]imidazole-1-yl)propyl)quinolin-4-amine]
[1]
  IC50: 9.91 ± 0.71 µM
[2]
  IC50: 7.26 µM
[3]
  IC50: 6.29 ± 0.51 µM
[4]
  % Inhibition, mature gametocytes: 7%
[5]
  % Inhibition, immature gametocytes: 3%
[6]
  Reversibility of the ferrocene/ferrocenium couple: chemically and electrochemically reversible
[6]; [7]
  Ipc/Ipa: 1.04
  ΔE: 0.127 V
[6]; [8]
  Anodic peak potential Epa: 0.638 V
  Cathodic peak potential Epc: 0.510 V
  Half-wave potential E1/2: 0.574 V

## Cc1ccc2c(c1)nc(-[c-]1cccc1CN(C)C)n2CCCNc1ccnc2cc(Cl)ccc12.[Fe+2].c1cc[cH-]c1 (centres unmarked) [Complex C3, 7-Chloro-N-(3-(5-methyl-2-(2-N,N-dimethylaminomethyl)ferrocenyl-1H-benzo[d]-imidazole-1-yl)propyl) Quinoline-4-amine]
[1]
  IC50: 0.025 ± 0.001 µM
[2]
  IC50: 5.42 µM
[3]
  IC50: 0.11 µM and 0.113 µM
[4]; read-out: IC50 ± S.E., mature gametocytes
  IC50: 7.27 µM
[4]
  % Inhibition, mature gametocytes: 99%
[5]; read-out: IC50 ± S.E., immature gametocytes
  IC50: 2.35 µM
[5]
  % Inhibition, immature gametocytes: 88%
[6]
  Reversibility of the ferrocene/ferrocenium couple: chemically and electrochemically irreversible
[6]; [8]
  Anodic peak potential Epa: 0.678 V
